According to ChEMBL document CHEMBL5233266, “β-Carboline as a Privileged Scaffold for Multitarget Strategies in Alzheimer's Disease Therapy” (J Med Chem, 2021):
pIC50, pKi: −log10 of the molar value. Converted amounts (≈) assume the structure as drawn.

Legend:
[1] = target: 5-hydroxytryptamine receptor 2B (Homo sapiens, UniProt P41595); assay: Binding affinity to 5-HT2B (unknown origin) assessed as equilibrium binding constant
[2] = target: 5-hydroxytryptamine receptor 2B (Rattus norvegicus, UniProt P30994); assay: Displacement of [3H]-ketanserin from rat 5-HT2B expressed in mouse NIH/3T3 cells assessed as inhibition constant by Cheng-Prusoff equation analysis; type: cell-based
Chain of 5-hydroxytryptamine receptor 2B (Rattus norvegicus, UniProt P30994) (P30994 whole entry): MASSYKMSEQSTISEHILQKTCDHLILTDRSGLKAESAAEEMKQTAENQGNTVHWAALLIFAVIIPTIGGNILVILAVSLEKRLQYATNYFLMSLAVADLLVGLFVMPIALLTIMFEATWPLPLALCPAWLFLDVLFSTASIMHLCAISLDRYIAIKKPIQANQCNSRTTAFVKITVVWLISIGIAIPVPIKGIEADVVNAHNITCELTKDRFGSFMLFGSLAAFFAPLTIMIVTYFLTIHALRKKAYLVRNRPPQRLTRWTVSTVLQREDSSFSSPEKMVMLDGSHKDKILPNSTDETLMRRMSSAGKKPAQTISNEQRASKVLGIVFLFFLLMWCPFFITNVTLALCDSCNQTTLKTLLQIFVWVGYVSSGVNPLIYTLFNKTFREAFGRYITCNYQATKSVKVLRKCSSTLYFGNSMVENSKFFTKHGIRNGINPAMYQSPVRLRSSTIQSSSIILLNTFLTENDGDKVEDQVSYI

[3] = target: 5-hydroxytryptamine receptor 2A (Rattus norvegicus, UniProt P14842); assay: (§1) Displacement of [3H]-ketanserin from rat 5-HT2A expressed in mouse NIH/3T3 cells assessed as inhibition constant by Cheng-Prusoff equation analysis; type: cell-based
Chain of 5-hydroxytryptamine receptor 2A (P14842 whole entry): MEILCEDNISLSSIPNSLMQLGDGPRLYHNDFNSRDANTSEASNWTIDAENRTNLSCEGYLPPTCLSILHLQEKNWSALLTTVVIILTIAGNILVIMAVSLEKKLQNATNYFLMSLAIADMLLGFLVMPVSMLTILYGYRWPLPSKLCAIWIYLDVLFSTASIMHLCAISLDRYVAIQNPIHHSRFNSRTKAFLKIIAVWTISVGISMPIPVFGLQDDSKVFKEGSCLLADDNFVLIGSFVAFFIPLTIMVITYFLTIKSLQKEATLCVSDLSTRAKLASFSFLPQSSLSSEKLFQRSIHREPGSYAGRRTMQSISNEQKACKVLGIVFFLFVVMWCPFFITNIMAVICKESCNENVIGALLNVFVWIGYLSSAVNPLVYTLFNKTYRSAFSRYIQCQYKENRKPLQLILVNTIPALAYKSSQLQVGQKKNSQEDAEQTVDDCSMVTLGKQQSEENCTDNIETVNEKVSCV

[4] = target: 5-hydroxytryptamine receptor 2C (Rattus norvegicus, UniProt P08909); assay: Displacement of [3H]-ketanserin from rat 5-HT2C expressed in mouse NIH/3T3 cells assessed as inhibition constant by Cheng-Prusoff equation analysis; type: cell-based
Chain of 5-hydroxytryptamine receptor 2C (P08909 whole entry): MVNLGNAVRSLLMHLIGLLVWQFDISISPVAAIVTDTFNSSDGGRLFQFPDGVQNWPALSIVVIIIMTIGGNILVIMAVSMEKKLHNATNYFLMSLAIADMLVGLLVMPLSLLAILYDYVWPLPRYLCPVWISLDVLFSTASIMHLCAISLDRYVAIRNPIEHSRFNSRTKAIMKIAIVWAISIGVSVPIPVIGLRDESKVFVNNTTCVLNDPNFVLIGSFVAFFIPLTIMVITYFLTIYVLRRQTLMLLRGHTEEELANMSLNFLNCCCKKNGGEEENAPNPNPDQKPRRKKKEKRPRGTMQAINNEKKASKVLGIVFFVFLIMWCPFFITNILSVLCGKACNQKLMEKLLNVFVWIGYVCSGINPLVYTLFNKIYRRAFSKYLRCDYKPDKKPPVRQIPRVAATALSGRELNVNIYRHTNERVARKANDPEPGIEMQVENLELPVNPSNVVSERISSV

[5] = target: cGMP-specific 3',5'-cyclic phosphodiesterase (Homo sapiens, UniProt O76074); assay: Inhibition of PDE5 (unknown origin)
[6] = target: T1, Protein deacetylase HDAC6 (Homo sapiens, UniProt Q9UBN7); assay: Inhibition of HDAC6 (unknown origin)
T1 sequence (Q9UBN7 whole entry): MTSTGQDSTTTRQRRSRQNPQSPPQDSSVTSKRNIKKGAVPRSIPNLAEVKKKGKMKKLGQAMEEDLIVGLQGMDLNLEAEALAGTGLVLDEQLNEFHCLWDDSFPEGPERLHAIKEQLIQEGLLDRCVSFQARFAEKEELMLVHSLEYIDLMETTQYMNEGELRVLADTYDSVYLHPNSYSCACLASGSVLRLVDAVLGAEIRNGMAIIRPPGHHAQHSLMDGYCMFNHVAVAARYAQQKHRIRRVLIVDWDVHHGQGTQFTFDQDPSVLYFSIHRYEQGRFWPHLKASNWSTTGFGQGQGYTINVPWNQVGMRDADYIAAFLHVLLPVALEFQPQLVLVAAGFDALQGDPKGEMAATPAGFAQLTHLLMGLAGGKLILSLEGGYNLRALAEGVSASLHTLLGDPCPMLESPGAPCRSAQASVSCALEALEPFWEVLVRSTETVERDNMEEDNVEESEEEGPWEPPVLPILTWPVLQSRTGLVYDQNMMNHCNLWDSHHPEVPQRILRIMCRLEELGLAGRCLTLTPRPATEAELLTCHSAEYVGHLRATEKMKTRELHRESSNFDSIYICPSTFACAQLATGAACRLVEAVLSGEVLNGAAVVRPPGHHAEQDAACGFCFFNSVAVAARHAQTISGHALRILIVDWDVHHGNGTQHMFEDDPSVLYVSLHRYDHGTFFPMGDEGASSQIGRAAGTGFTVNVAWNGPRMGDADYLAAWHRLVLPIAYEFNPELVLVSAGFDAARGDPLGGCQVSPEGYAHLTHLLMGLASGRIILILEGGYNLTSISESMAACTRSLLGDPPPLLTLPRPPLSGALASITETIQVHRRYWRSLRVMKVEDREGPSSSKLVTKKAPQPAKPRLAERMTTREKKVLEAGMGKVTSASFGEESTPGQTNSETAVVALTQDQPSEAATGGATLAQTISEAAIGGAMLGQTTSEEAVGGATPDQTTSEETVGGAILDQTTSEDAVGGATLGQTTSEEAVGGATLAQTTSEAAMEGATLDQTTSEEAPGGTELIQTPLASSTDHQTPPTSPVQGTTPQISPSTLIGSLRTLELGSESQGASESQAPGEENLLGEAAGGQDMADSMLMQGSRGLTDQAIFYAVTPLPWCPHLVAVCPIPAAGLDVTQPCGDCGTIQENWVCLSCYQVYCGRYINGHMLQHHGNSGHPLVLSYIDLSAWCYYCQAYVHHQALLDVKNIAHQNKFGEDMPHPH

Histone deacetylase 1 = Histone deacetylase 1 (Homo sapiens, UniProt Q13547); assay: Inhibition of HDAC1 (unknown origin)
Chain of Histone deacetylase 1 (Q13547 whole entry): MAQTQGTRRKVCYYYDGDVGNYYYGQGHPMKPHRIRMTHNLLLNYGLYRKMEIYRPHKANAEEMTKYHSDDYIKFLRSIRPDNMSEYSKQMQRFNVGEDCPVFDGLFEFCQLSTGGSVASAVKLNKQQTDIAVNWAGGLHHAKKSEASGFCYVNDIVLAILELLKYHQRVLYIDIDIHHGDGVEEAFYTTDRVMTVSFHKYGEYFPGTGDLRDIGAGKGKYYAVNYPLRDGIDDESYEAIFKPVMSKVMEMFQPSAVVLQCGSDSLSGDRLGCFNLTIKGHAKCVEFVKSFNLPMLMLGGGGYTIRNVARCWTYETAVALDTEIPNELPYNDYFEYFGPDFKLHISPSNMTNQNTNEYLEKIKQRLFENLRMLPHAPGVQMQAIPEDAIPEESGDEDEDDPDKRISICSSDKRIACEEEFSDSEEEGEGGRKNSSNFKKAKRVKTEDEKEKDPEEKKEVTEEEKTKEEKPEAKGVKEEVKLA

Histone deacetylase 2 = Histone deacetylase 2 (Homo sapiens, UniProt Q92769); assay: Inhibition of HDAC2 (unknown origin)
Chain of Histone deacetylase 2 (Q92769 whole entry): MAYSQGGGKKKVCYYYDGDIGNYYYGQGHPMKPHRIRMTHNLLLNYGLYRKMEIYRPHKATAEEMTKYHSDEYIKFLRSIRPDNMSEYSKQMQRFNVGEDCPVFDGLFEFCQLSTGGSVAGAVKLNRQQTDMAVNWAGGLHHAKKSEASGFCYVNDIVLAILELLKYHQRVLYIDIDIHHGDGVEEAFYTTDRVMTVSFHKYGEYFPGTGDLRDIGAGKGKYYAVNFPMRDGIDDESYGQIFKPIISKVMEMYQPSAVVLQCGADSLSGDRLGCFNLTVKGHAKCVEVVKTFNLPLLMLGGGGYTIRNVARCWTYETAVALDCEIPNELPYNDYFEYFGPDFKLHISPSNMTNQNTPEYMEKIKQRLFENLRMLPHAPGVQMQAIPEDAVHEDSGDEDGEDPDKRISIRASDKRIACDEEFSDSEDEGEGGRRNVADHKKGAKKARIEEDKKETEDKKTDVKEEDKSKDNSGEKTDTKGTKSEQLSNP

[7] = Aqueous solubility of compound; type: physicochemical; conditions: water
Acetylcholinesterase = Acetylcholinesterase (Homo sapiens, UniProt P22303); assay: Inhibition of AChE (unknown origin)
Chain of Acetylcholinesterase (P22303 whole entry): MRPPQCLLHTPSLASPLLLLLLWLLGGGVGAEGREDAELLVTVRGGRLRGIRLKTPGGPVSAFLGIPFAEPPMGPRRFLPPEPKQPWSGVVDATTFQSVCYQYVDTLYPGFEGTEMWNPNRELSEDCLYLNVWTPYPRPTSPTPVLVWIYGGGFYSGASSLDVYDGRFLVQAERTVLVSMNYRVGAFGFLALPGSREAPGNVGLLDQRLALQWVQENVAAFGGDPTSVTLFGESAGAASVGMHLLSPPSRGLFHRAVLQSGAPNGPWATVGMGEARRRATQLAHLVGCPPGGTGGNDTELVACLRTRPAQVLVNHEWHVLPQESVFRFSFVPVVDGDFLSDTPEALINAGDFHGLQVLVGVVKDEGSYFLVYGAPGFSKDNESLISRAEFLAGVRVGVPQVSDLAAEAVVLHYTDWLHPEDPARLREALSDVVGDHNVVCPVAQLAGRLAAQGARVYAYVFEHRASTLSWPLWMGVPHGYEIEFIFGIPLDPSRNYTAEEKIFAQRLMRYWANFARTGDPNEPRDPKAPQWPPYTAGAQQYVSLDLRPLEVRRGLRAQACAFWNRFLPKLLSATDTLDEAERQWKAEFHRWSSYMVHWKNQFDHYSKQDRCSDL

[8] = target: 5-hydroxytryptamine receptor 2A (Rattus norvegicus) (UniProt P14842); assay: as §1; type: cell-based
Chain of 5-hydroxytryptamine receptor 2A (Rattus norvegicus) (P14842 whole entry): as the sequence (P14842 whole entry) above

[9] = target: GABA-A receptor; anion channel; assay: Displacement of [3H]flunitrazepam from GABAA (unknown origin ) receptor by radioligand binding assay; type: protein-complex assay, Homo sapiens
Beta-secretase 1 = Beta-secretase 1 (Homo sapiens, UniProt P56817); assay: Inhibition of BACE1 (unknown origin) expressed in HEK293 cells by FRET assay; type: cell-based
Chain of Beta-secretase 1 (P56817 whole entry): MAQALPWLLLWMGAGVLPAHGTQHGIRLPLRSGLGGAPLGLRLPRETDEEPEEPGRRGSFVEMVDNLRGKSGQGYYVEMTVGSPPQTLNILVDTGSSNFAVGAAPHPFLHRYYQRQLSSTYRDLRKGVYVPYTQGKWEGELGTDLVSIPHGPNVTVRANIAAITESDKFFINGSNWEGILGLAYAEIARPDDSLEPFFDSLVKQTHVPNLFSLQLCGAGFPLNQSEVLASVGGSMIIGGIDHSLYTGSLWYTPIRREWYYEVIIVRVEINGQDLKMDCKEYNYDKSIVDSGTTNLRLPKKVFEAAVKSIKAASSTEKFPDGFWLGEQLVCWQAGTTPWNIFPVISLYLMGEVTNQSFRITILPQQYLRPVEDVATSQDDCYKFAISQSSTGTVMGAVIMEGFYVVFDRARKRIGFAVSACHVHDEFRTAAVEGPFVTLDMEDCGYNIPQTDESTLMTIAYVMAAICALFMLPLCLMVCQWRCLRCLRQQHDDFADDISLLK

[10] = target: Amyloid-beta precursor protein (Homo sapiens) (UniProt P05067); assay: Inhibition of amyloid beta (unknown origin) aggregation relative to control; conditions: concentration not given here
Chain of Amyloid-beta precursor protein (Homo sapiens) (P05067 whole entry): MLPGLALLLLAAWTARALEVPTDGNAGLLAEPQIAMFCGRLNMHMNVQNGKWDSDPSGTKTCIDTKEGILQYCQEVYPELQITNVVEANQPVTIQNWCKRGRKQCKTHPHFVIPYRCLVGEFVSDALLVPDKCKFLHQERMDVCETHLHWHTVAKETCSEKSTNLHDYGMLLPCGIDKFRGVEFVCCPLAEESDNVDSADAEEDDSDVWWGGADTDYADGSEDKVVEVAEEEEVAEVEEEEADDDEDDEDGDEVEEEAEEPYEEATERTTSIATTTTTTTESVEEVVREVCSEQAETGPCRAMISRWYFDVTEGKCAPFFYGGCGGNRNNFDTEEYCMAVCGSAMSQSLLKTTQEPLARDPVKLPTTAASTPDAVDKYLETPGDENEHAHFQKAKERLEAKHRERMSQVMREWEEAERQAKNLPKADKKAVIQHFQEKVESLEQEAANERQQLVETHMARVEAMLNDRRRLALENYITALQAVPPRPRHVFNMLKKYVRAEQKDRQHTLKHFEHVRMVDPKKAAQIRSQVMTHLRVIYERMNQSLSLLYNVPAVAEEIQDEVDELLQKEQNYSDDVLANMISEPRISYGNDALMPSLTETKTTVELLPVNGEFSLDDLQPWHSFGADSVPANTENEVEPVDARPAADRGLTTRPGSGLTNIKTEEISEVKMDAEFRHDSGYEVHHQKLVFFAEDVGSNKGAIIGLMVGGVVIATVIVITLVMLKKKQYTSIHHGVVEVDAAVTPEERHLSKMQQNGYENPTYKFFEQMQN

Chain of 5-hydroxytryptamine receptor 2B (Homo sapiens, UniProt P41595) (P41595 whole entry): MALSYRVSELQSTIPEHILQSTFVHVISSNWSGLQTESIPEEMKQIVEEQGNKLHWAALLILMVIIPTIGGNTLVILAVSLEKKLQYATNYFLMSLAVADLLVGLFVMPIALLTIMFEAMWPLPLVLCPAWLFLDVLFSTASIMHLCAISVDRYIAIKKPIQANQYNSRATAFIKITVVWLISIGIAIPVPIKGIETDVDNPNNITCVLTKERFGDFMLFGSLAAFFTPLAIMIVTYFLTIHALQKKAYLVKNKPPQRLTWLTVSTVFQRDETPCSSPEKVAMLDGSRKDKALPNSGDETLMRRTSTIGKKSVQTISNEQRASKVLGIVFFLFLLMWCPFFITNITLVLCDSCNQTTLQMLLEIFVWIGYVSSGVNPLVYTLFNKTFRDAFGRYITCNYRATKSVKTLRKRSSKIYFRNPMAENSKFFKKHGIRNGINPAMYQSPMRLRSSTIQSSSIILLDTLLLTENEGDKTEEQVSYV

For COc1ccc(CC2NCCc3c2[nH]c2c(C)c(C)ccc32)c(Br)c1OC (stereo not given), which Kb [1] is on record?
The Kb was 0.08 nM.

What about the pKi [2] of the same compound?
The pKi was 10.10.

And the pKi [3]?
Its pKi is 8.05.

And the pKi [4]?
Its pKi is 8.10.

With O=C(/C=C/c1ccc(N2CC(=O)N3C(Cc4c([nH]c5ccccc45)C3c3ccc4c(c3)OCO4)C2=O)cc1)NO (stereo not given) as the compound, how does the pIC50 [5] read?
Its pIC50 is 6.92.

What about the pIC50 [6] of the same compound?
The pIC50 was less than 5.60.

What about the pIC50 (Histone deacetylase 1) of the same compound?
Its pIC50 is less than 5.60.

What about the pIC50 (Histone deacetylase 2) of the same compound?
Its pIC50 is less than 5.60.

With COc1ccc([C@@H]2c3[nH]c4ccccc4c3C[C@H]3C(=O)N(CCC4CCN(Cc5ccccc5)CC4)CC(=O)N23)cc1 as the compound, how does the pIC50 [5] read?
The pIC50 was 5.49.

What about the solubility [7] of the same compound?
The solubility was 420 µg/mL (≈ 746 µM).

What about the pIC50 (Acetylcholinesterase) of the same compound?
The pIC50 was 7.82.

With COc1cccc2[nH]c3c(c12)CCNC3 as the compound, how does the K [8] read?
Its K is less than 0.18 µM.

What does the source list for COc1ccc2c3c([nH]c2c1)C(C)NCC3 (stereo not given)?
pIC50 [9]: < 4.00; pKi [4]: < 5.00

With O=C(/C=C/c1ccc(O)c(O)c1)NCc1cn(C[C@@H]2Cc3c([nH]c4ccccc34)CN2)nn1 as the compound, how does the pIC50 (Beta-secretase 1) read?
Its pIC50 is less than 4.30.

And the inhibition [10]?
Its inhibition is 30%.

With O=C(CCCN1CCC(N2CC(=O)N3C(Cc4c([nH]c5ccccc45)C3c3ccc4c(c3)OCO4)C2=O)CC1)NO (stereo not given) as the compound, how does the pIC50 [5] read?
Its pIC50 is 6.85.

What about the pIC50 [6] of the same compound?
Its pIC50 is less than 5.60.

What about the pIC50 (Histone deacetylase 1) of the same compound?
Its pIC50 is less than 5.60.

What about the pIC50 (Histone deacetylase 2) of the same compound?
The pIC50 was less than 5.60.
